System: IL-17
Test: IL-17 secretion by ELISA in TNFα-induced mouse splenocytes
Type: cell-based
Settings: TNFα 20 nM, 24 hours
Description: Inflammation was induced by treating mouse splenocytes with the inflammatory cytokine TNFα, and the secretion amounts of the inflammatory cytokines IL-17, IL-1B, and IFNγ were confirmed. IL-17 corresponds to a pro-inflammatory cytokine, and the descriptions of IL-1β and IFNγ are the same as above.
Mouse splenocytes were dispensed into a 24-well plate at a concentration of 1×10^7 cells/well and cultured until the next day. The medium was replaced with serum-free medium, and after 4 hours, the cells were treated with TNFα and the peptide of the present invention and then cultured again for another 24 hours. In order to induce inflammation, the cells were treated with TNFα at 20 nM, and the peptide at 5 μM and 50 μM, respectively. The mouse splenocytes in the group in which inflammation was not induced due to untreatment with TNFα (NON); the negative control group in which the cells were treated with TNFα but not treated with the peptide (NC); and the group in which the cells were treated with TNFα along with the peptide of the present invention at the same concentration as above, respectively, were reacted as described above and the cell cultures were recovered. […]

Substance: TWNS [peptide of the present invention]
- secretion amount of IL-17 (peptide at 5 μM): slightly increased
- secretion amount of IL-17 (peptide at 50 μM): decreased

Reference: US20250340590A1, “PEPTIDE HAVING ANTI-INFLAMMATORY ACTIVITY AND USE THEREOF” (CAREGEN CO., LTD., priority 2021, published 2025)
